The values below come from BindingDB's records for patent WO2025049746 (Eikon Therapeutics, 2025).

Experiment [1] addresses Bifunctional 3'-5' exonuclease/ATP-dependent helicase WRN (Homo sapiens, UniProt Q14191). In words: ADP-Glo Kinase Assay. On the procedure:
ATPase activity was measured using the ADP-Glo Kinase Assay following the manufacturers recommended protocol.
(In general: ADP-Glo turns the ADP formed in a reaction into a luminescent signal.)

The target in experiment [2] is T1, Bifunctional 3'-5' exonuclease/ATP-dependent helicase WRN [480-1251] (UniProt Q14191).
T1 construct: 480-1251
In words: Biochemical Activity Assays. The method, then:
The pure fractions were pooled and desalted/buffer exchanged into storage buffer using a HiTrap desalting column. […] First, WRN alone was pre-incubated with DMSO or compound of interest for 15 minutes. To initiate the reaction, ATP, dsDNA substrate, and ssDNA competitor (ssDNA_comp: […]) were added and incubated at room temperature for 20 minutes at which point DNA unwinding activity was monitored by measuring Cy3 fluorescence. After obtaining the reading, the ATPase activity was measured using the ADP-Glo Kinase Assay following the manufacturers recommended protocol. […] Compounds were assayed in a 10-point dose response in duplicate at a 1% DMSO final assay concentration.

T1 sequence (Q14191 480-1251): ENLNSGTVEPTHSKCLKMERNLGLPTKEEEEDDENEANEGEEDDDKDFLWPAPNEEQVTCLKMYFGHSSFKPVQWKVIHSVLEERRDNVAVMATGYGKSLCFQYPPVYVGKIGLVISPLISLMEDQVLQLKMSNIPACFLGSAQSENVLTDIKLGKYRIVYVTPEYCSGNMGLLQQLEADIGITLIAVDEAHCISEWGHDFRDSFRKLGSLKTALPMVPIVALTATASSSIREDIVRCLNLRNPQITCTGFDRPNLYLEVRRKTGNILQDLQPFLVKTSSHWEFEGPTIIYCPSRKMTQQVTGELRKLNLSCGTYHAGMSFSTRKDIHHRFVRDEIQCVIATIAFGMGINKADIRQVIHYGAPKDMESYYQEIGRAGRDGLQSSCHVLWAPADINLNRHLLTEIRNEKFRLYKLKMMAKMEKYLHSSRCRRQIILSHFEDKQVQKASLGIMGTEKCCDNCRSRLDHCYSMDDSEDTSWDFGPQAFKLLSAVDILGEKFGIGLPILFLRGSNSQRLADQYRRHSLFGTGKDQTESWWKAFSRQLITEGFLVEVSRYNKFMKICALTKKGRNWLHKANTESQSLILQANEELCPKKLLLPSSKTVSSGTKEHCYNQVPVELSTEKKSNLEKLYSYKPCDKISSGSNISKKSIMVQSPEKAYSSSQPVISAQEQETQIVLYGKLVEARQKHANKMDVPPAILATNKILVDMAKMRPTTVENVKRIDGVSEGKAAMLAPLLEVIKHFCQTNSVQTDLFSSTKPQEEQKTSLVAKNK
Chain of Bifunctional 3'-5' exonuclease/ATP-dependent helicase WRN (Q14191 whole entry): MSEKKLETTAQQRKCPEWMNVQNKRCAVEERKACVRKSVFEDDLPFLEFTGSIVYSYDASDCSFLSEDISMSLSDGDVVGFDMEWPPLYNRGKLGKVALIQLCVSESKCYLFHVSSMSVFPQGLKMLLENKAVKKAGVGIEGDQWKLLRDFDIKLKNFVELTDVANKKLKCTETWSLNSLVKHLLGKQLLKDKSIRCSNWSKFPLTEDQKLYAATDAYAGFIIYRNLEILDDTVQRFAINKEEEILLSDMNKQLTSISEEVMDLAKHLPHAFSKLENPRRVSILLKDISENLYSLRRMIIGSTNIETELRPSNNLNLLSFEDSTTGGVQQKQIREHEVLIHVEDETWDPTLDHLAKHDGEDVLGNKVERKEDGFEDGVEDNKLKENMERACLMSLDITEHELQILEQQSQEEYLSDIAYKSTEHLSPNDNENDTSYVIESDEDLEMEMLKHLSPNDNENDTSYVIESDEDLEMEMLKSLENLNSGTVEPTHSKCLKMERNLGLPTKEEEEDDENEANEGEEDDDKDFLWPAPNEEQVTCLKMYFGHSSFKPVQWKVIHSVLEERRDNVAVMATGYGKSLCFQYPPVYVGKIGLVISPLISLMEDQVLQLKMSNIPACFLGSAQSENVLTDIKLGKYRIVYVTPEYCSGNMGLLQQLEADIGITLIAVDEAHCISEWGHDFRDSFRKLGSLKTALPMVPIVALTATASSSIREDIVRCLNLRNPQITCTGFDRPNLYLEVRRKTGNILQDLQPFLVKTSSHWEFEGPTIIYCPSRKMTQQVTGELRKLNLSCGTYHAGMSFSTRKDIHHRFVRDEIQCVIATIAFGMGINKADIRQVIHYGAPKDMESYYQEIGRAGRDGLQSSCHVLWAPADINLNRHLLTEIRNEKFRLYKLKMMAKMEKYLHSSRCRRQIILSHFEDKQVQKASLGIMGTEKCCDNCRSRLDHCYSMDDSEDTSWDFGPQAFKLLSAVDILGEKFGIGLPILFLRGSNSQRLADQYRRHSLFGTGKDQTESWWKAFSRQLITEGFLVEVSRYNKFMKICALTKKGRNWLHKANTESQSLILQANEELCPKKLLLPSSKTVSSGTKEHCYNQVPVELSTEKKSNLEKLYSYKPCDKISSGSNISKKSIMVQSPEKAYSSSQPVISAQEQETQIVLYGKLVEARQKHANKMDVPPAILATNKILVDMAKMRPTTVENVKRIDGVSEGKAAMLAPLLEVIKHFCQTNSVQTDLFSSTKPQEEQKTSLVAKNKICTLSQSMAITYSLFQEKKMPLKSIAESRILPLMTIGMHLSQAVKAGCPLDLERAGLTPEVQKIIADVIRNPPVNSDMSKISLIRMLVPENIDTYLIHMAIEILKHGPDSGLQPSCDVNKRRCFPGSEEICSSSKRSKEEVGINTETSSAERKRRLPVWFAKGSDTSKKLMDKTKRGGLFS

For `CCc1c(N2CCN(C(=O)c3ncnc(C)c3O)[C@H]3CC[C@@H]32)c(=O)n2nc(-c3ccc4c(c3)COC4(C)C)nc2n1CC(=O)Nc1ccc(C(F)(F)F)cc1Cl` [WO2025049746, Example 458], the IC50 (in general, the midpoint of a concentration-inhibition curve) in experiment [1] stood at 90 nM; in experiment [2] it was 93 nM.

Turning to `CCc1c(N2CCN(C(=O)c3ncnc(C)c3O)CC2)c(=O)n2nc(C3CCC3)nc2n1CC(=O)Nc1ccc(C(F)(F)F)cc1C` [WO2025049746, Example 79], the results for the half-maximal inhibitory concentration (IC50) in experiment [1] and in experiment [2] were 539 nM and 456 nM, respectively.

As to `CCc1c(N2CCN(C(=O)c3ncnc(C)c3O)CC2)c(=O)n2nc(-c3cc4c(cc3F)C(C)(C)OC4)nc2n1CC(=O)Nc1ccc(C(F)(F)F)cc1Cl` [WO2025049746, Example 211], the IC50 was 36 nM in experiment [1] and 32 nM in experiment [2].

On to `CCc1c(N2CCN(C(=O)c3ncnc(C)c3O)CC2)c(=O)n2nc(-c3cccc4c3COC(C)(C)C4)nc2n1CC(=O)Nc1ccc(C(F)(F)F)cc1Cl` [WO2025049746, Example 222], for which the figures for the IC50 in experiment [1] and in experiment [2] were 40 nM and 45 nM, respectively.

With `CCc1c(N2CCN(C(=O)c3nccc4nc[nH]c34)CC2)c(=O)n2nc(-c3ccc4c(c3)OCO4)nc2n1CC(=O)Nc1ccc(C(F)(F)F)cc1Cl` [WO2025049746, Example 88], the IC50 in experiment [1] was found to be 48.8 nM; in experiment [2], 28.9 nM.

As to `CCc1c(N2CCN(C(=O)c3ncnc(C)c3O)CC2)c(=O)n2nc(-c3cccc4c3CCCO4)nc2n1CC(=O)Nc1ccc(C(F)(F)F)cc1Cl` [WO2025049746, Example 159], the IC50 in experiment [1] is 231 nM; in experiment [2] it was 82 nM.

As for `CCc1c(N2CCN(C(=O)c3ncnc(C)c3O)CC2)c(=O)n2nc(-c3ccc4c(c3)COC4)nc2n1CC(=O)Nc1ccc(C(F)(F)F)cc1Cl` [WO2025049746, Example 13], the IC50 in experiment [1] worked out at 27.3 nM; in experiment [2], 23.5 nM.

`CCc1c(N2CCN(C(=O)c3ncnc(C)c3O)CC2)c(=O)n2nc(-c3ccc4c(c3)CO[C@@H]4C)nc2n1CC(=O)Nc1ccc(C(F)(F)F)cc1Cl` [WO2025049746, Example 191]: the concentration for half-maximal inhibition (IC50) in experiment [1] came to 53 nM; in experiment [2], 44 nM.

Consider `CCc1c(N2CCN(C(C)=O)CC2)c(=O)n2nc(N(C)C)nc2n1CC(=O)Nc1ccc(C(F)(F)F)cc1Cl` [WO2025049746, Example 81], for which the IC50 in experiment [1] was 533 nM; in experiment [2] it was 174 nM.

With `CCc1c(N2CCN(C(=O)c3ncnc(C)c3O)CC2)c(=O)n2nc(-c3ccc4ncn(C)c4c3)nc2n1CC(=O)Nc1ccc(C(F)(F)F)cc1Cl` [WO2025049746, Example 236], the IC50 in experiment [1] and in experiment [2] was 25 nM in each case.

Regarding `CCc1c(N2CCN(C(=O)c3ncnc(N4CC(OC)C4)c3O)CC2)c(=O)n2nc(-c3ccc4c(c3)COC4)nc2n1CC(=O)Nc1ccc(C(F)(F)F)cc1Cl` [WO2025049746, Example 415], the IC50 was determined as 3 nM in experiment [1] and 1 nM in experiment [2].

In the case of `CCc1c(N2CCN(C(=O)c3ncnc(C)c3O)CC2)c(=O)n2nc(N3CCC(=C(F)F)CC3)nc2n1CC(=O)Nc1ccc(C(F)(F)F)cc1Cl` [WO2025049746, Example 205], the IC50 in experiment [1] is 36 nM; in experiment [2], 27 nM.

As for `CCc1c(N2CCN(C(=O)c3ncnc(C)c3O)CC2)c(=O)n2nc(-c3cc4c(cc3F)[C@H](OC)CC4)nc2n1CC(=O)Nc1ccc(C(F)(F)F)cc1Cl` [WO2025049746, Example 245], the IC50 in experiment [1] was found to be 26 nM; in experiment [2], 28 nM.

Turning to `CCc1c(N2CCN(C(=O)c3ncnc(C)c3O)CC2)c(=O)n2nc(-c3ccc4c(c3)C(C)CO4)nc2n1CC(=O)Nc1ccc(C(F)(F)F)cc1Cl` (centres undefined) [WO2025049746, Example 170], the IC50 in experiment [1] was found to be 51 nM; in experiment [2], 41 nM.

Turning to `CCc1c(N2CCN(C(=O)c3ncnc(C)c3O)CC2)c(=O)n2nc(-c3cc4c(cc3C)OCC4)nc2n1CC(=O)Nc1ccc(C(F)(F)F)cc1Cl` [WO2025049746, Example 174], the IC50 in experiment [1] was found to be 59 nM; in experiment [2], 31 nM.

Consider `CCc1c(N2CCN(C(=O)c3ncnc(C)c3O)CC2)c(=O)n2nc(-c3ccc4c(c3F)CCOC4)nc2n1CC(=O)Nc1ccc(C(F)(F)F)cc1Cl` [WO2025049746, Example 217], for which the IC50 in experiment [1] came out at 31 nM; in experiment [2], 32 nM.

Turning to `CCc1c(N2CCN(C(=O)c3ncnc(C)c3O)CC2)c(=O)n2nc(-c3ccc4ncccc4c3)nc2n1CC(=O)Nc1ccc(C(F)(F)F)cc1Cl` [WO2025049746, Example 264], the IC50 in experiment [1] was 23 nM; in experiment [2], 24 nM.

In the case of `CCc1c(N2CCN(C(=O)c3nc4n(c(=O)c3O)CCC4)CC2)c(=O)n2nc(-c3ccc4c(c3)COC4)nc2n1CC(=O)Nc1ccc(C(F)(F)F)cc1Cl` [WO2025049746, Example 422], the IC50 was found to be 47 nM in experiment [1] and 38 nM in experiment [2].

`CCc1c(N2CCN(C(=O)c3nc4n(c(=O)c3O)CCCC4)CC2)c(=O)n2nc(-c3ccc4c(c3)COC4)nc2n1CC(=O)Nc1ccc(C(F)(F)F)cc1Cl` [WO2025049746, Example 427]: the IC50 in experiment [1] and in experiment [2] was 19 nM each time.

Regarding `CCc1c(N2CCN(C(=O)c3ncnc(C)c3O)CC2)c(=O)n2nc(C3=CCOCC3)nc2n1CC(=O)Nc1ccc(OC(F)F)cc1Cl` [WO2025049746, Example 370], the IC50 amounted to 163 nM in experiment [1] and 161 nM in experiment [2].

Regarding `CCc1c(N2CCN(C(=O)C3(CO)CC3)CC2)c(=O)n2nc(C3=CCOCC3)nc2n1CC(=O)Nc1ccc(C(F)(F)F)cc1Cl` [WO2025049746, Example 55], the IC50 was found to be 5740 nM in experiment [1] and 3350 nM in experiment [2].

Consider `CCc1c(N2CCN(C(=O)c3nc4c(cc3OCc3ccc(OC)cc3)COCC4)CC2)c(=O)n2nc(-c3ccc4c(c3)COC4(C)C)nc2n1CC(=O)Nc1ccc(C(F)(F)F)cc1Cl` [WO2025049746, Example 464], for which the IC50 in experiment [1] stood at 68 nM; in experiment [2], 83.3 nM.

With `CCc1c(N2CCN(C(=O)c3ncnc(C)c3O)CC2)c(=O)n2nc(-c3ccc4c(cnn4CC(F)F)c3)nc2n1CC(=O)Nc1ccc(C(F)(F)F)cc1Cl` [WO2025049746, Example 293], the IC50 is 33 nM in experiment [1] and 34 nM in experiment [2].

`CCc1c(N2CCN(C(=O)c3ncnc(C)c3O)CC2)c(=O)n2nc(-c3ccc4nonc4c3)nc2n1CC(=O)Nc1ccc(C(F)(F)F)cc1Cl` [WO2025049746, Example 234]: the figures for the IC50 in experiment [1] and in experiment [2] were 67 nM and 75 nM, respectively.

Take `CCc1c(N2CCN(C(=O)c3ncnc(C)c3O)CC2)c(=O)n2nc(C3=CCOCC3)nc2n1CC(=O)NC12CC(C(F)(F)C(F)(F)F)(C1)C2` [WO2025049746, Example 69]: the figures for the IC50 in experiment [1] and in experiment [2] were 235 nM and 141 nM, respectively.

Take `CCc1c(N2CCN(C(=O)c3ncnc(C)c3O)CC2)c(=O)n2nc(-c3cc(C(F)(F)F)c4ncccc4c3)nc2n1CC(=O)Nc1ccc(C(F)(F)F)cc1Cl` [WO2025049746, Example 322]: the IC50 in experiment [1] is 72 nM; in experiment [2] it was 96 nM.

`CCc1c(N2CCN(C(=O)c3ncnc(C)c3O)CC2)c(=O)n2nc(-c3ccc(C(=O)N4CCCC4)cc3)nc2n1CC(=O)Nc1ccc(C(F)(F)F)cc1Cl` [WO2025049746, Example 267]: the concentration for half-maximal inhibition (IC50) in experiment [1] worked out at 26 nM; in experiment [2] it was 23 nM.

On to `CCc1c(N2CCN(C(=O)/C=C/C(=O)c3ccc(OC)cc3)CC2)c(=O)n2nc(C3=CCOCC3)nc2n1CC(=O)Nc1ccc(C(F)(F)F)cc1Cl` [WO2025049746, Example 344], for which the IC50 in experiment [1] amounted to 289 nM; in experiment [2] it was 242 nM.

As to `CCc1c(N2CCN(C(=O)c3ncnc(C)c3O)CC2)c(=O)n2nc(-c3cc(F)c4c(c3)COC4)nc2n1CC(=O)Nc1ccc(C(F)(F)F)cc1Cl` [WO2025049746, Example 202], the IC50 in experiment [1] stood at 40 nM; in experiment [2] it was 32 nM.

Turning to `CCc1c(N2CCN(C(=O)c3ncnc(C)c3O)CC2)c(=O)n2nc(-c3ccc4[nH]c(=O)ccc4c3)nc2n1CC(=O)Nc1ccc(C(F)(F)F)cc1Cl` [WO2025049746, Example 318], the IC50 amounted to 23 nM in experiment [1] and 24 nM in experiment [2].

Consider `CCc1c(N2CCN(C(=O)c3nc4n(c(=O)c3O)CCOC4)CC2)c(=O)n2nc(-c3ccc4c(c3)OCO4)nc2n1CC(=O)Nc1ccc(C(F)(F)F)cc1Cl` [WO2025049746, Example 86], for which the IC50 in experiment [1] amounted to 21.5 nM; in experiment [2], 21.3 nM.

Regarding `CCc1c(N2CCN(C(=O)c3ncnc(C)c3O)CC2)c(=O)n2nc(C3C4COCC43)nc2n1CC(=O)Nc1ccc(C(F)(F)F)c2c1CC2` (centres undefined) [WO2025049746, Example 382], the IC50 in experiment [1] was determined as 2960 nM; in experiment [2], 2300 nM.

As for `CCc1c(N2CCN(C(=O)c3cccc4c3NS(=O)(=O)C=C4)CC2)c(=O)n2nc(-c3ccc4c(c3)COC4)nc2n1CC(=O)Nc1ccc(C(F)(F)F)cc1Cl` [WO2025049746, Example 426], the IC50 in experiment [1] amounted to 34 nM; in experiment [2] it was 25 nM.

With `CCc1c(N2CCN(C(=O)c3nc4n(c(=O)c3O)CCOC4)CC2)c(=O)n2nc(N(C)C)nc2n1CC(=O)Nc1ccc(C(F)(F)F)c2c1CC2` [WO2025049746, Example 109], the IC50 in experiment [1] is 13.4 nM; in experiment [2] it was 14.7 nM.

For the molecule `CCc1c(N2CC[C@@H](C)N(C(=O)c3ncnc(C)c3O)CC2)c(=O)n2nc(-c3ccc4c(c3)COC4(C)C)nc2n1CC(=O)Nc1ccc(C(F)(F)F)cc1Cl` [WO2025049746, Example 461], the IC50 was found to be 45 nM in experiment [1] and 50 nM in experiment [2].

With `CCc1c(N2CCN(C(=O)c3ncnc(C)c3O)CC2)c(=O)n2nc(-c3ccc4c(c3)COC43CN(C)C3)nc2n1CC(=O)Nc1ccc(C(F)(F)F)cc1Cl` [WO2025049746, Example 209], the figures for the IC50 in experiment [1] and in experiment [2] were 56 nM and 45 nM, respectively.

Consider `CCc1c(N2CCN(C(=O)c3ncnc(C)c3O)CC2)c(=O)n2nc(-c3cc(C)c4ncccc4c3)nc2n1CC(=O)Nc1ccc(C(F)(F)F)cc1Cl` [WO2025049746, Example 336], for which the IC50 in experiment [1] worked out at 53 nM; in experiment [2] it was 60 nM.
